Data reported in patent US20040191208A1, “Cosmetic composition for men's skin care and hair care” (Laboratoires Clarins, a corporation of France, priority 2001, published 2004).

How the values were obtained:
[1] = test system: synthesis of prostaglandins (PGE2); assay: PGE2 synthesis induced by PMA in cultured keratinocytes (approach 2), ELISA, evaluating inhibition of cyclooxygenase; type: cell-based, human; settings: indomethacin 1 μM
Description: (§1) In the initial steps of the induction of inflammation, the arachidonic acid stored in the cell membranes is liberated. Once the arachidonic acid has been liberated, it can follow different metabolic pathways. The pathways include: the cyclooxygenase enzyme pathway which leads to the prostaglandins, and the lipoxygenase enzyme pathway which leads to the leukotrienes. The anti-inflammatory activity of purslane extract was, therefore, tested in vitro by evaluating the inhibition of cyclooxygenase. The ELISA-based test employed made it possible to monitor the synthesis of prostaglandins (PGE2) in cultures of human keratinocytes. The cells were used at subconfluence with a cellular multiplication and an active metabolic activity. Two approaches were employed: approach 1: synthesis of the PGE2 intrinsic to the cultured cells; and approach 2: synthesis of the PGE2 induced chemically by PMA (phorbol myristate acetate), an inflammatory agent. Normal human keratinocytes were cultured at 37° C. for 48 hours in a defined medium in the presence of the following products: approach 1: -purslane extract (0.1%, 0.5%, 1% and 3% vol/vol) - aspirin 100 μM (anti-inflammatory, reference compound) approach 2: - purslane extract (0.1%, 0.5%, 1% and 3% vol/vol) - indomethacin 1 μM (anti-inflammatory, reference compound) - stimulation with PMA 1 μg/ml (after 24 hours of incubation). At the end of 48 hours, the different media were collected for quantitative determination of the PGE2. The protective capacity against the liberation of prostaglandins induced by the pro-inflammatory agent PMA was studied using approach 2.

[2] = test system: synthesis of prostaglandins (PGE2); assay: PGE2 synthesis intrinsic to cultured keratinocytes (approach 1), ELISA, evaluating inhibition of cyclooxygenase; type: cell-based, human; settings: aspirin 100 μM
Description: as §1, with “PGE2.” for “PGE2. The protective capacity against the liberation of prostaglandins induced by the pro-inflammatory agent PMA was studied using approach 2.”

Structure (SMILES)	inhibition at 1 µM ([1]; Homo sapiens, Keratinocyte, PMA-induced PGE2, read-out: % inhibition of the liberation of PGE2) [%]	% control ([1]; PGE2 relative to control, PMA-induced) [%]	Pg PGE2/mg prot ([1]; PMA 1 μg/ml stimulation after 24 h, 48 h) [Pg PGE2/mg prot]	% inhibition of the liberation of PGE2 ([1]; PMA-induced PGE2) [%]	inhibition at 100 µM ([2]; Homo sapiens, Keratinocyte, intrinsic PGE2, 48 h, read-out: % inhibition of the liberation of PGE2) [%]	% control ([2]; PGE2 relative to control, intrinsic PGE2, 48 h) [%]	Pg PGE2/mg prot ([2]; normal human keratinocytes, 48 h, intrinsic PGE2) [Pg PGE2/mg prot]
COc1ccc2c(c1)c(CC(=O)O)c(C)n2C(=O)c1ccc(Cl)cc1 [Indomethacin, indomethacin]	80	21.0	1683.9	79.0			
CC(=O)Oc1ccccc1C(=O)O [Aspirin, aspirin]					60.3	39.7	1968.2
